The values below come from patent US20060171983A1, “Use of Vitamin D receptor activators or Vitamin D analogs to treat cardiovascular disease” (priority 2003, published 2006).

Where two headings read alike, the source gives them in different places.

The nature of data set [1]: Observational cohort study of hospitalization outcomes in hemodialysis patients. Type of data set: in vivo, human. From the text:
This study was expanded to include patients who received no Vitamin D receptor activator treatment. [“Improved hospitalization outcomes in hemodialysis patients treated with paricalcitol.” J. Melnick, et al., abstract book from World Congress of Nephrology, Jun. 8-12, 2003, Berlin.

Data set [2] is classed as in vivo, rat. The protocol:
It is clinically important to suppress elevated serum PTH levels in ESRD patients with established secondary hyperparathyroidism (SHPT) independent of hypercalcemia. Moreover, the 5/6 uremic rat model has effectively predicted the clinical profile of vitamin D analogues with respect to PTH and hypercalcemia. Thus, a direct comparison was conducted of paricalcitol (PARI) and doxercalciferol (DOX) in male Sprague Dawley rats subjected to 5/6 nephrectomy (surgical ablation) placed on 4 weeks of a high phosphorous diet (0.9% phos., 0.6% Ca) to establish SHPT. On Day 0, rats received vehicle (VEH; 5% ethanol, 95% propylene glycol; 0.4 ml/kg; IP) or drug (0.083, 0.17, 0.33, 0.66 mcg/kg; n=7-10/group) 3 times/week for 12 days. Blood samples were collected 24 hr post dose (Day 13). Day 0 values (mean±SEM) for: creatinine (VEH vs sham) were 1.02±0.05 vs 0.48±0.01 mg/dL; PTH, 1320±185 vs 178±11 pg/ml; blood ionized calcium (iCa; 1.26±0.01 vs 1.30±0.01 mmol/L); phosphorous (8.70±0.34 vs 7.36±0.09 mg/dL). In VEH, the ratio of Day 13/Day 0 iCa values declined to 0.93±0.02 vs 1.02±0.01 for sham; PTH and phosphorous tended to increase. […] PARI had no effect on iCa at 0.33 mcg/kg whereas the iCa ratio increased modestly to 1.05±0.02*# at 0.66 mcg/kg, less than that of DOX. The Day 13/Day 0 PTH ratios for DOX fell to 0.43±0.12, 0.26±0.06*, and 0.22±0.11* in response to 0.18, 0.33, 0.66 mcg/kg, respectively, while PARI decreased PTH ratios to 0.37±0.07*, 0.33±0.06*, 0.13±0.02*. Serum phosphorus was not affected in any treatment group. […] Thus, in the uremic rat with established SHPT, DOX suppresses serum PTH levels concomitant with dose-dependent elevations in ionized calcium greater than those caused by equal doses of. PARI. At these doses, PARI effectively reduces PTH without eliciting dose-dependent changes in ionized blood calcium. *=p<0.05 vs. VEH ANOVA; # p<0.05 unpaired t test DOX vs PARI

The subject of data set [3] is CYP24A1. The data set can be described thus: CYP24A1 mRNA expression in human CASMC (control). Type of data set: cell-based. As to conditions: dose-dependent manner.
The nature of data set [4]: Vascular calcification in 5/6 nephrectomized uremic rats. Type of data set: in vivo, rat. The protocol: The 5/6 nephrectomized rats were obtained from Charles River Labs. (Wilmington, Mass.). Two weeks after nephrectomy, rats were put on a diet containing 0.9% phosphorous and 0.6% calcium for 4 weeks, followed by treatment with vehicle (5% ethanol+95% propylene glycol, 0.4 ml/kg), paricalcitol or doxercalciferol at 0.67 μg/kg, i.p., 3 times/week, for 2 weeks. Twenty-four hours after the last dosing, blood was collected via tail vein under ketamine anesthesia (50 mg/kg) and aorta collected for calcification studies. […] After the aortas were removed in a sterile manner from the rats, the aventitia was gently removed and each aorta was washed three times with medium. A segment of each aorta was processed for calcium and phoshphorus determination. A separate portion of each aorta was denuded, cut into 2-3-mm rings and placed in DMEM containing 0.2 μCi/ml ^45Ca for 3 days at 37° C. Afterwards, aortic rings were washed, dried, weighed, and then dissolved to determine radioactivity. […] Both paricalcitol and doxercalciferol at 0.67 μg/kg elevated iCa (˜25%) and suppressed PTH (>90%).

Data set [5] has as its system PAI-1. The data set can be described thus: PAI-1 mRNA expression in human CASMC (control). The format is cell-based. As to conditions: dose-dependent manner.
For data set [6], the system named is renin. The data set can be described thus: In vivo renin inhibition in CD-1 male mice. Also noted: species or system mouse. As to conditions: 1.5 and 3.0 μg/kg i.p. 3 times a week for three weeks.
The mark [7] stands for this setting: 0.67 μg/kg i.p. 3 times/week for 2 weeks.

For the molecule `C[C@H](/C=C/[C@H](C)C(C)(C)O)[C@H]1CC[C@H]2/C(=C/C=C3C[C@@H](O)C[C@H](O)C3)CCC[C@]12C` [paricalcitol], in data set [1] (hemodialysis patients, FIG. 2), the “median number of days spent in the hospital (hospital days per year)” value is given as 5.2 days and the “median number of hospitalizations in a year” value came out at 1.5. In addition, in data set [1] (regression analysis, FIG. 3), the “fewer hospital days compared to the No Vitamin D group” value turned out to be 17.5 days and the “fewer hospitalizations compared to the No Vitamin D group” value was 1.2. Besides, in data set [2] (0.18 mcg/kg IP 3 times/week for 12 days), the “Day 13/Day 0 PTH ratio” value was 0.37±0.07. Also, the “Day 13/Day 0 PTH ratio” value in data set [2] (0.33 mcg/kg IP 3 times/week for 12 days) came to 0.33±0.06. In addition, the “Day 13/Day 0 PTH ratio” value in data set [2] (0.66 mcg/kg IP 3 times/week for 12 days) came out at 0.13±0.02. Besides, the “CYP24A1 mRNA expression” value in data set [3] is on record as “stimulated”. Further, the “elevation of iCa” value in data set [4] (0.67 μg/kg) is recorded as ~25%. In data set [4] (setting [7]), the “Ca content in aorta compared to vehicle” value is recorded as 1.6 fold and the “phosphorus content in aorta compared to vehicle” value is “no significant difference”. For the same molecule, the “45Ca uptake in aorta rings compared to vehicle” value in data set [4] (0.67 μg/kg i.p. 3 times/week for 2 weeks, rings 3 days in 45Ca) is listed as “no significant difference”. Besides, the “PAI-1 mRNA expression” value in data set [5] is “suppressed”. Also, in data set [6], the body weight result is recorded as “no effect” and the “levels of blood ionized calcium” value is on record as “only slightly increased”.
